Measurements taken from the SangsterLogP compilation.

SMILES | logP
CSc1ccc(C(=O)O)cc1 | 2.74
CS(=O)(=O)c1ccc(C(=O)O)cc1 | 0.67
Oc1cccc(-c2ccccc2)c1 | 3.23
O=Cc1ccc(OCC(=O)O)cc1 | 0.79
CSc1ccc(O)cc1 | 1.78
CSc1cccc(N)c1 | 1.45
CC(=O)Oc1ccc(C)cc1 | 2.11
CC(=O)Nc1cccc(O)c1 | 0.73
Nc1ccc(Oc2ccccc2)cc1 | 2.36
O=C(O)Cc1ccc(C(F)(F)F)cc1 | 2.45
Cc1cccc(N(C)C)c1 | 2.8

The next lines start with the values.

logP | SMILES
0.72 | CC(=O)Nc1ccccc1O
2.46 | Nc1ccccc1Oc1ccccc1
1.73 | CC(=O)Nc1ccccc1C(=O)O
1.63 | COc1ccccc1N(C)C
-0.12 | CS(=O)(=O)c1ccc(N)cc1
1.2 | CSc1ccccc1N
2.09 | CC(=O)Oc1cccc(C)c1
2.26 | Cc1ccccc1C=O
2.92 | COc1ccccc1Oc1ccccc1
1.42 | COc1ccc(N(C)C)cc1
3.21 | O=C(O)c1ccc(Oc2ccccc2)cc1
1.59 | N#Cc1ccccc1O
